Measurements: patent publication US12133841B2, “Heterocyclic compounds as kinase inhibitors, compositions comprising the heterocyclic compound, and methods of use thereof” (JS INNOMED HOLDINGS LTD., priority 2018, dated 2024)

Assays:
Colo205 cell line = experiment: Colo205 cell proliferation assay (MTT assay, WST-8); assay type: cell-based; conditions: Homo sapiens, COLO 205; 72 hours incubation; read-out: Colo 205 Cell Activity (IC50 of growth inhibition in Colo 205 cells)
Protocol: Compounds disclosed herein were tested for the inhibition of ERK2 by a Colo205 cell proliferation assay commonly known as MTT assay. In this assay, a complete media was prepared by adding 10% fetal bovine serum to RPMI-1640 medium (Life technology). Colon cancer cells (Colo205 cell line) were added to each of 88 wells of a 96 well plate at a seeding density of 5,000 cells/well/90 μL. The cells were allowed to attach to the plate by incubating at 37° C. for 24 hours. The compound was dissolved in DMSO (SIGMA). A solution of test compound was prepared in complete media by serial dilution to obtain the following concentrations: 500 μM, 150 μM, 50 μM, 15 μM, 5 μM, 1.5 μM, 0.5 μM, 0.15 μM and 0.05 μM. The test compound solution (10 μL) was added to each of 80 cell-containing wells. The final concentrations of the compound were following: 50 μM, 15 μM, 5 μM, 1.5 μM, 0.5 μM, 0.15 μM, 0.05 μM, 0.015 μM and 0.005 μM. The final concentration of DMSO is 0.5%. To the 8 remaining cell-containing wells, only complete media (containing 0.5% DMSO) was added to form a control group in order to measure maximal proliferation. To the remaining 8 empty wells, complete media was added to for a vehicle control group in order to measure background. The plates were incubated at 37° C. for 72 hours. 10 μL WST-8 solution (DOJINDO, Cell Counting KIT-8) was added to each well. The plates were further incubated at 37° C. for 2 hours, and then read for the absorbance using a microplate reader at 450 nm.
The IC50 values of growth inhibition in Colo 205 cells for compounds disclosed are listed in Table 3, A′: ≤0.5 μM; B′: >0.5 μM and ≤1 μM; C′: >1.0 μM and ≤5 uM; D′: >5 μM.

human ERK2 = biological target: T1, human ERK2 (Homo sapiens, UniProt P28482); experiment: LanthaScreen TR-FRET ERK2 enzymatic assay; conditions: 5 μM ATP, one hour reaction; read-out: ERK2 Biochemical Activity (IC50 of ERK2 inhibition)
T1 construct: recombinantly expressed as GST-tagged full-length protein purified from E. coli; GST; purchased Invitrogen PV3311; host or cells: E. coli
T1 sequence (P28482 whole entry): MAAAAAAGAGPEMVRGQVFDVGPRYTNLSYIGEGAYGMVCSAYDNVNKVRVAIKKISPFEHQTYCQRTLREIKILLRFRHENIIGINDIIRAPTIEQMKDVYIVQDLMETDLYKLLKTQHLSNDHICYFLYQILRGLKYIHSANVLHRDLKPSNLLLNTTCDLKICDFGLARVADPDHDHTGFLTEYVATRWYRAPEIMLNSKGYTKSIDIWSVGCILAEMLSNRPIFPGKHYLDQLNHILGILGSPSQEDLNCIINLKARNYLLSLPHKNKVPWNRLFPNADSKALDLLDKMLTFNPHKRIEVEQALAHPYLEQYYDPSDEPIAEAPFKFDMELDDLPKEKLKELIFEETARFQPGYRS
Protocol: Compounds were tested in a LanthaScreen™ time-resolved fluorescence energy transfer (TR-FRET) enzymatic assay from Invitrogen. The assay used human ERK2 (Mitogen Activated Kinase 1, Invitrogen, Cat. PV3311) recombinantly expressed as GST-tagged full-length protein purified from E. coli and activated in vitro with MAP2K1. The substrate was a recombinant truncated version (residues 19-96) of ATF2 fused with Green Fluorescent Protein (Invitrogen, Cat. PV4445). Test compounds were prepared and diluted in DMSO in 3-fold serial dilutions to 100× of the final testing concentrations. The compounds were then further diluted to 4× by the kinase reaction buffer (Invitrogen, Cat. PV3189). The enzymatic reaction for compound testing was performed in a white 384-well polypropylene plate (Packard, Cat. 6005214) with a total reaction volume of 10 μl containing 20 ng/ml ERK2, 400 nM substrate, and 5 μM ATP that is around its Km. The assay started with loading 2.5 μl of ERK2 diluted in kinase reaction buffer to wells, followed by addition of equal volume of 4× compounds for 15-min incubation at the room temperature for pre-treatment. The enzymatic reaction was initiated by addition of 5 μl of mixture of the substrate and ATP prepared in kinase reaction buffer. After one hour reaction, 10 μl mixture of EDTA (final 10 mM) and terbium-labeled anti-pATF2 (pThr71) antibody (final 2 nM) (Invitrogen, Cat. PV4451) prepared in TR-FRET antibody dilution buffer (Invitrogen, Cat. PV3574) was added to stop the enzymatic reaction and produce TR-FRET signals. After 30 minutes of incubation at room temperature, the plate was read in Tecan Infinite F200 Pro with the following settings: Excitation 340 nm (30)/Emission1 495 nm (10)/Emission2 520 nm (25). The TR-FRET values were dimensionless numbers that were calculated as the ratio of the acceptor ([…]) signal to the donor (Terbium) signal. Percent of control was calculated as the percentage of compound-treated vs 1% DMSO vehicle-treated. The dose-response curves were generated and the IC50s were calculated by nonlinear sigmoid curve fitting using GraphPad Prism.
The IC50 values of ERK2 inhibition for compounds disclosed are listed in Table 3, A: ≤10 nM; B: >10 nM and ≤100 nM; C: >100 nM and ≤1 uM; D: >1 μM.

| IC50 (Colo205 cell line) [nM] | IC50 (human ERK2) [nM] | SMILES |
| --- | --- | --- |
| 1000 to 5000 | – | Cn1nccc1Nc1nccc(-c2cc3c(s2)C(C)(C)N(CCc2ccnc(C(F)(F)F)c2)C3=O)n1 [Example 8, 6,6-dimethyl-2-(2-((1-methyl-1H-pyrazol-5-yl)amino)pyrimidin-4-yl)-5-(2-(2-(trifluoromethyl)pyridin-4-yl)ethyl)-5,6-dihydro-4H-thieno[2,3-c]pyrrol-4-one] |
| ≤ 500 | ≤ 10 | Cn1nccc1Nc1nccc(-c2cc3c(s2)C(C)(C)N(CC(=O)N[C@H](CO)c2cccc(Cl)c2)C3=O)n1 [Example 14, (S)—N-(1-(3-chlorophenyl)-2-hydroxyethyl)-2-(6,6-dimethyl-2-(2-((1-methyl-1H-pyrazol-5-yl)amino)pyrimidin-4-yl)-4-oxo-4H-thieno[2,3-c]pyrrol-5(6H)-yl)acetamide] |
| ≤ 500 | ≤ 10 | Cn1nccc1Nc1nccc(-c2cc3c(s2)C(C)(C)N(Cc2nc(C(F)(F)F)cs2)C3=O)n1 [Example 5, 6,6-dimethyl-2-(2-((1-methyl-1H-pyrazol-5-yl)amino)pyrimidin-4-yl)-5-((4-(trifluoromethyl)thiazol-2-yl)methyl)-5,6-dihydro-4H-thieno[2,3-c]pyrrol-4-one] |
| ≤ 500 | ≤ 10 | Cn1nccc1Nc1nccc(-c2cc3c(s2)C(C)(C)N(Cc2cc(C(F)(F)F)no2)C3=O)n1 [Example 7, 6,6-dimethyl-2-(2-((1-methyl-1H-pyrazol-5-yl)amino)pyrimidin-4-yl)-5-((3-(trifluoromethyl)isoxazol-5-yl)methyl)-5,6-dihydro-4H-thieno[2,3-c]pyrrol-4-one] |
| 500 to 1000 | – | CC(C(=O)N[C@H](CO)c1cccc(Cl)c1)N1C(=O)c2cc(-c3ccnc(Nc4ccnn4C)n3)sc2C1(C)C (stereo partly drawn) [Example 15, N—((S)-1-(3-chlorophenyl)-2-hydroxyethyl)-2-(6,6-dimethyl-2-(2-((1-methyl-1H-pyrazol-5-yl)amino)pyrimidin-4-yl)-4-oxo-4H-thieno[2,3-c]pyrrol-5(6H)-yl)propanamide] |
| ≤ 500 | – | Cn1nccc1Nc1nccc(-c2cc3c(s2)C(C)(C)N([C@H](CO)c2cccc(Cl)c2)C3=O)n1 [Example 11, (S)-5-(1-(3-chlorophenyl)-2-hydroxyethyl)-6,6-dimethyl-2-(2-((1-methyl-1H-pyrazol-5-yl)amino)pyrimidin-4-yl)-5,6-dihydro-4H-thieno[2,3-c]pyrrol-4-one] |
| 1000 to 5000 | – | CC(c1cccc(C(F)(F)F)n1)N1C(=O)c2cc(-c3ccnc(Nc4ccnn4C)n3)sc2C1(C)C (stereo not shown) [Example 12, 6,6-dimethyl-2-(2-((1-methyl-1H-pyrazol-5-yl)amino)pyrimidin-4-yl)-5-(1-(6-(trifluoromethyl)pyridin-2-yl)ethyl)-5,6-dihydro-4H-thieno[2,3-c]pyrrol-4-one] |
| ≤ 500 | ≤ 10 | CC(c1nc(C(F)(F)F)cs1)N1C(=O)c2cc(-c3ccnc(Nc4ccnn4C)n3)sc2C1(C)C (racemic) [Example 10, 6,6-dimethyl-2-(2-(1-methyl-1H-pyrazol-5-ylamino)pyrimidin-4-yl)-5-(1-(4-(trifluoromethyl)thiazol-2-yl)ethyl)-5,6-dihydro-4H-thieno[2,3-c]pyrrol-4-one] |
| 500 to 1000 | ≤ 10 | Cn1nccc1Nc1nccc(-c2cc3c(s2)C(C)(C)N(Cc2ccc(C(F)(F)F)nc2)C3=O)n1 [Example 4, 6,6-dimethyl-2-(2-((1-methyl-1H-pyrazol-5-yl)amino)pyrimidin-4-yl)-5-((6-(trifluoromethyl)pyridin-3-yl)methyl)-5,6-dihydro-4H-thieno[2,3-c]pyrrol-4-one] |
| 500 to 1000 | – | Cn1nccc1Nc1nccc(-c2cc3c(s2)C(C)(C)N(CCN[C@H](CO)c2cccc(Cl)c2)C3=O)n1 [Example 17, (S)-5-(2-((1-(3-chlorophenyl)-2-hydroxyethyl)amino)ethyl)-6,6-dimethyl-2-(2-((1-methyl-1H-pyrazol-5-yl)amino)pyrimidin-4-yl)-5,6-dihydro-4H-thieno[2,3-c]pyrrol-4-one] |
| ≤ 500 | ≤ 10 | Cn1nccc1Nc1nccc(-c2cc3c(s2)C(C)(C)N(Cc2ccnc(C(F)(F)F)c2)C3=O)n1 [Example 1, 6,6-dimethyl-2-(2-(1-methyl-1H-pyrazol-5-ylamino)pyrimidin-4-yl)-5-((2-(trifluoromethyl)pyridin-4-yl)methyl)-5,6-dihydro-4H-thieno[2,3-c]pyrrol-4-one] |
| ≤ 500 | ≤ 10 | Cn1nccc1Nc1nccc(-c2cc3c(s2)C(C)(C)N(Cc2cccc(Cl)c2)C3=O)n1 [Example 2, 5-(3-chlorobenzyl)-6,6-dimethyl-2-(2-(1-methyl-1H-pyrazol-5-ylamino)pyrimidin-4-yl)-5,6-dihydro-4H-thieno[2,3-c]pyrrol-4-one] |
| 1000 to 5000 | – | Cn1nccc1Nc1nccc(-c2cc3c(s2)C(C)(C)N(CC(=O)NCc2ccnc(C(F)(F)F)c2)C3=O)n1 [Example 16, 2-(6,6-dimethyl-2-(2-((1-methyl-1H-pyrazol-5-yl)amino)pyrimidin-4-yl)-4-oxo-4H-thieno[2,3-c]pyrrol-5(6H)-yl)-N-((2-(trifluoromethyl)pyridin-4-yl)methyl)acetamide] |
| ≤ 500 | 10 to 100 | CC(c1ccnc(C(F)(F)F)n1)N1C(=O)c2cc(-c3ccnc(Nc4ccnn4C)n3)sc2C1(C)C (stereo not shown) [Example 13, 6,6-dimethyl-2-(2-((1-methyl-1H-pyrazol-5-yl)amino)pyrimidin-4-yl)-5-(1-(2-(trifluoromethyl)pyrimidin-4-yl)ethyl)-5,6-dihydro-4H-thieno[2,3-c]pyrrol-4-one] |
| ≤ 500 | ≤ 10 | CC(c1ccnc(C(F)(F)F)c1)N1C(=O)c2cc(-c3ccnc(Nc4ccnn4C)n3)sc2C1(C)C (racemic) [Example 9, 6,6-dimethyl-2-(2-(1-methyl-1H-pyrazol-5-ylamino)pyrimidin-4-yl)-5-(1-(2-(trifluoromethyl)pyridin-4-yl)ethyl)-5,6-dihydro-4H-thieno[2,3-c]pyrrol-4-one] |
| ≤ 500 | ≤ 10 | Cn1nccc1Nc1nccc(-c2cc3c(s2)C(C)(C)N(Cc2ccnc(C(F)(F)F)n2)C3=O)n1 [Example 6, 6,6-dimethyl-2-(2-((1-methyl-1H-pyrazol-5-yl)amino)pyrimidin-4-yl)-5-((2-(trifluoromethyl)pyrimidin-4-yl)methyl)-5,6-dihydro-4H-thieno[2,3-c]pyrrol-4-one] |
| ≤ 500 | ≤ 10 | Cn1nccc1Nc1nccc(-c2cc3c(s2)C(C)(C)N(Cc2cccc(C(F)(F)F)n2)C3=O)n1 [Example 3, 6,6-dimethyl-2-(2-((1-methyl-1H-pyrazol-5-yl)amino)pyrimidin-4-yl)-5-((6-(trifluoromethyl)pyridin-2-yl)methyl)-5,6-dihydro-4H-thieno[2,3-c]pyrrol-4-one] |
